Experimental data taken from ChEMBL document CHEMBL4033700, “From a novel HTS hit to potent, selective, and orally bioavailable KDM5 inhibitors” (Bioorg Med Chem Lett, 2017).

Experiments:
[1] = Clearance in CD-1 mouse plasma at 1 mg/kg, iv or 5 mg/kg, po; assay type: ADME, organism-based
[2] = biological target: T1, Lysine-specific demethylase 2B (Homo sapiens, UniProt Q8NHM5); experiment: Inhibition of recombinant human N-terminal FLAG-tagged KDM2B expressed in baculovirus infected Sf9 insect cells using H3K36me2 peptide as substrate after 30 to 45 mins by TR-FRET assay
T1 sequence (Q8NHM5 whole entry): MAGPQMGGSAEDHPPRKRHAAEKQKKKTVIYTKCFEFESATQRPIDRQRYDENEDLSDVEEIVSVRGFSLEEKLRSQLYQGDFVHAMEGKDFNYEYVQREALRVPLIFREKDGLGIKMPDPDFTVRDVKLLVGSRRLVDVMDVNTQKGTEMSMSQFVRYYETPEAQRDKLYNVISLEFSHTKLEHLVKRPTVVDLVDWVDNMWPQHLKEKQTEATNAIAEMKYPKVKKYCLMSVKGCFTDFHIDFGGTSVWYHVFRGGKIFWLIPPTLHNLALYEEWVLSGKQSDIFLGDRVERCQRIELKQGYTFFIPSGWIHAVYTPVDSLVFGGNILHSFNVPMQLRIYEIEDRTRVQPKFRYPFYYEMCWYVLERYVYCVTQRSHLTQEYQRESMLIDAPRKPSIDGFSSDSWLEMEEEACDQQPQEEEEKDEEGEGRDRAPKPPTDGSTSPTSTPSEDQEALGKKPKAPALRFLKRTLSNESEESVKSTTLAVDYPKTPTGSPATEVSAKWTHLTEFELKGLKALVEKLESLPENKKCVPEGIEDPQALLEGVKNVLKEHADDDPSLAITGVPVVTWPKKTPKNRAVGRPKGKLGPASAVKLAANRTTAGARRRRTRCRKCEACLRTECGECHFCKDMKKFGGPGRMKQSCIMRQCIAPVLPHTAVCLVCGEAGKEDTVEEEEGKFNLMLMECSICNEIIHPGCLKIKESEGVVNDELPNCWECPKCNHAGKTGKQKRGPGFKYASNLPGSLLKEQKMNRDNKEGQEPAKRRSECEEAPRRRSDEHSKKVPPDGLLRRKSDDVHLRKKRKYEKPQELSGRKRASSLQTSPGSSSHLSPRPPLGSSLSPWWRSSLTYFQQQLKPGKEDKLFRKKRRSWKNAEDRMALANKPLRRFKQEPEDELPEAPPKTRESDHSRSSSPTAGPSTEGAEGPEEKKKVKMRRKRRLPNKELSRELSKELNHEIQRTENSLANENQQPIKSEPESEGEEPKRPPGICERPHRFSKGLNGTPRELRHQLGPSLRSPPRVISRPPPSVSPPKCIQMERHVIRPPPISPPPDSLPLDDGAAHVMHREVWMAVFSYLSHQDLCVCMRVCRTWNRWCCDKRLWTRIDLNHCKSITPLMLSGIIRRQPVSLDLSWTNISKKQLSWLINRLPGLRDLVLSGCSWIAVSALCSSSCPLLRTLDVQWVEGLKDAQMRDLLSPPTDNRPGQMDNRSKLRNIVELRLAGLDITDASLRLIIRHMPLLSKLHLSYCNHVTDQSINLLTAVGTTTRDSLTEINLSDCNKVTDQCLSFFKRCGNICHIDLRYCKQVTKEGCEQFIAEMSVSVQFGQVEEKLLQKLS

[3] = biological target: Histone lysine demethylase PHF8 (Homo sapiens, UniProt Q9UPP1); experiment: Inhibition of recombinant human N-terminal FLAG-tagged KDM7B expressed in baculovirus infected Sf9 insect cells using H3K9me1 peptide as substrate after 30 to 45 mins by TR-FRET assay
[4] = Protein binding in mouse plasma; assay type: ADME, cell-free; conditions: read-out: PPB (converted)
[5] = Hepatic clearance in mouse hepatocytes; assay type: ADME, cell-based, Hepatocyte

Histone lysine demethylase PHF8, sequence (Q9UPP1 whole entry): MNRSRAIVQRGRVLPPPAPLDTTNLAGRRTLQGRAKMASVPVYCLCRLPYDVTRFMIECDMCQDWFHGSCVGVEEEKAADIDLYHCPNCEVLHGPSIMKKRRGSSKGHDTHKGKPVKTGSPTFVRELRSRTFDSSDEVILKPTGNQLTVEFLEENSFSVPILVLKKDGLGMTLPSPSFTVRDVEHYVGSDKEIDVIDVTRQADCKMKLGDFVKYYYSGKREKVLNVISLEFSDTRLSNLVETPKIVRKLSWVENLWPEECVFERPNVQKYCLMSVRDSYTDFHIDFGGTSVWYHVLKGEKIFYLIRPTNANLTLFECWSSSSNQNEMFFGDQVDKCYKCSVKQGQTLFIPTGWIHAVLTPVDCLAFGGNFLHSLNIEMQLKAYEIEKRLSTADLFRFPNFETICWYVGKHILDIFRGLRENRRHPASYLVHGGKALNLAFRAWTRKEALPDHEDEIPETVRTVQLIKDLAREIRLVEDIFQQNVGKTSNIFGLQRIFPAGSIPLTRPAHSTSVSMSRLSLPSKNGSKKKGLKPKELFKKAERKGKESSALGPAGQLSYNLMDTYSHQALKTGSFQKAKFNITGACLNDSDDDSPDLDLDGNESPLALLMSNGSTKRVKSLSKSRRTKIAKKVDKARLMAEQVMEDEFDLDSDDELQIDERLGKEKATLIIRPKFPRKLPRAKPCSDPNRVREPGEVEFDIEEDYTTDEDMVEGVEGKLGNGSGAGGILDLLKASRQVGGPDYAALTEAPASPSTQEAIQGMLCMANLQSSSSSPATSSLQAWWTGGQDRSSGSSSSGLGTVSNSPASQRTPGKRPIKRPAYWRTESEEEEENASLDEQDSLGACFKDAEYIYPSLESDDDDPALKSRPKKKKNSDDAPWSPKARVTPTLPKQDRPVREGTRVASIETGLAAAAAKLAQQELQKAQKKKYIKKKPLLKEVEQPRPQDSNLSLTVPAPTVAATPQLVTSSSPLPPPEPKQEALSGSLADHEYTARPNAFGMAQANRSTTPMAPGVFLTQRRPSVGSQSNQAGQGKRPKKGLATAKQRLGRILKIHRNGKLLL

- clearance [1]: 28 mL/min/kg
- IC50 [2]: > 25 µM
- IC50 [3]: > 25 µM
- fraction unbound [4]: 0.6
- CLhep predicted [5]: 0.6 mL/min/kg
SMILES: CC(C)c1cc(C(=O)N2CC[C@@H](NC(=O)C3CC3)C2)[nH]n1
